The source of these data is patent US11760751B2, “Benzo 2-azaspiro[4.4]nonane compound and use thereof” (HELIOEAST PHARMACEUTICAL CO., LTD., priority 2020, dated 2023).

The structures appear in SMILES notation. Structures can show the parent of a compound that is named as a salt. Where two headings read alike, the source gives them in different places.

The nature of data set [1]: Pharmacokinetic evaluation in SD rats at different oral doses. Format: in vivo, Sprague Dawley rats. The following applies: for Cmax: read-out: Peak concentration Cmax; for AUC(0-t): read-out: Area under the drug-time curve AUC0-last PO; for half-life: read-out: Half-life T1/2 (PO) (converted); for Tmax: read-out: Peak time Tmax. As for the experimental part:
Test Embodiment 5: Pharmacokinetic Evaluation of Compounds in Rats at Different Doses
Experimental objective: to test the pharmacokinetics of the compounds in SD rats at different doses
Sprague Dawley rats (male, 200-300 g, 7-9 weeks old, Shanghai SLAC)
A standard protocol was used to test the pharmacokinetic characteristics of the compounds in SD rats after oral administration. In the experiment, the candidate compound was prepared into a clear solution, and administrated to rats by single oral administration. The vehicle for compound 1 was DMSO: 10% hydroxypropyl β-cyclodextrin aqueous solution=5:95. The vehicle for compounds 1A and 1B was 0.5% carboxymethyl cellulose +0.2% Tween 80. Whole blood samples of compounds 1, 1A and 1B within 48 hours were collected, centrifuged at 3000 g for 15 minutes, and the supernatant was separated to obtain plasma samples. 4-fold volume of acetonitrile solution containing internal standard was added thereto to precipitate protein. The mixture was centrifuged, and the supernatant was taken, and an equal volume of water was added thereto. Then the mixture was centrifuged and the supernatant was taken for injection. The blood drug concentration was quantitatively analyzed by LC-MS/MS analysis method, and pharmacokinetic parameters, such as peak concentration, peak time, half-life, area under the drug-time curve, were calculated.

Data set [2] concerns the target T1, S1PR1 (Homo sapiens, UniProt P21453).
T1 construct: expressed in transfected cells
Description: In vitro S1PR1 agonistic activity, U2OS-EDG1 cells, LiveBLAzer-FRET B/G (CCF4-AM). The following applies: for EC50: 20 hours incubation; for Emax: % Effect. Format: cell-based. As to the method:
Test Embodiment 2: In Vitro Evaluation of the Agonistic Activity of the Compounds of the Present Disclosure on S1PR1
(§1) Experimental objective: to detect the agonistic activity of compounds on S1PR1
I. Cell Treatment • 1. The cells U2OS-EDG1 (batch number: Invitrogen-K1520) were taken out from a liquid nitrogen tank and quickly thawed in a 37° C. water bath; • 2. the cell suspension was aspirated into a 15 mL centrifuge tube, resuspended in 5 mL of pre-warmed culture medium, and centrifuged at 1000 rpm for 5 min; • 3. the supernatant was discarded, 10 mL of culture medium was resuspended, transferred to a T75 culture flask, and cultured in a 37° C., 5% CO2 incubator.
II. Agonist Assay • 1. Compounds were diluted to working concentrations, and the compounds were 3-fold diluted by Echo 555 (manufacturer: Labcyte) to 10 concentrations, and then 200 nL of each concentration were transferred to cell plates, and centrifuged at 1000 rpm for 15 seconds; • 2. the culture medium in the culture flask was aspirated, and 4 mL of Dulbecco's Phosphate Buffered Saline (DPBS, supplier: Coring, catalog number: 21-031-CVR, batch number: 03318006) was added thereto to wash off the residual serum, and 2 mL of trypsin was added thereto, and incubated in a 37° C. incubator for 2 minutes to digest the cells, and then 10 mL of seed plate culture medium was added to resuspend the cells, and 0.6 mL of the cell suspension was taken out for counting; • 3. the cell density was adjusted with the seed plate culture medium to 1.88E+05 cells/mL, 40 μL was seeded per well (7500\well), and 40 μL of FreeStyle™ Expression culture medium was added around the cell plate, left to stand for 15 minutes at room temperature, and incubated at 37° C. with 5% CO2 for 20 hours.
III. Signal Detection • 1. LiveBLAzer™-FRET B/G Substrate (CCF4-AM) detection reagent was configured according to the instructions; • 2. 8 μL of 6×Substrate Mixture was added to each well of the cell plate, centrifuged at 1000 rpm for 15 seconds, attached with a membrane, incubated at 23° C. for 2 hours, and detected by Envision […].
IV. Data Analysis • 1. The original data was converted into % Effect by using the equation, and the value of EC50 could be obtained by curve fitting with four parameters [obtained in the “log(agonist) vs. response—Variable slope” mode in GraphPad Prism]; • 2. calculation formula: Ratio=(460 nm−blank)/(535 nm−blank) % Effect=(SampleRatio−Ave LCRatio)/(Ave HCRatio−Ave LCRatio)*100%

In data set [3] the target is T1, S1PR1. Description: In vitro S1PR1 agonistic activity, PathHunter cell line, chemiluminescent detection. Format: cell-based. As to the method: Test Embodiment 1: In Vitro Evaluation of the Agonistic Activity of the Compounds of the Present Disclosure on S1PR1
as §1
I. Cell Treatment • 1. A PathHunter cell line was thawed according to standard procedures; • 2. the cells were inoculated in a 20 μL 384-well microplate and incubated at 37° C. for appropriate time.
II. Agonist • 1. For agonist determination, cells were incubated with samples to be tested to induce a reaction; • 2. a storage solution to be tested was 5-fold diluted into a buffer; • 3. 5 μL of the 5-fold dilution was added to the cells and incubated at 37° C. for 90-180 minutes. The vehicle concentration was 1%.
III. Signal Detection • 1. 12.5 μL or 15 μL of PathHunter detection reagent at a volume ratio of 50% was added at a time, and then incubated at room temperature for 1 hour to generate a detection signal; • 2. the microplate was read with a PerkinElmer Envision™ instrument for chemiluminescent signal detection.
IV. Data Analysis • 1. Activity analysis of the compound was carried out by using CBIS data analysis kit (ChemInnovation, CAA); • 2. calculation formula: % activity=100%×(average test sample RLU−average vehicle RLU)/(average maximum control ligand−average vehicle RLU)

The nature of data set [4]: Pharmacokinetic evaluation in CD-1 mice (intravenous and oral). Format: in vivo. The conditions noted are these: male, mouse, plasma. As to the method: Test Embodiment 4: Pharmacokinetic Evaluation of Compound in Mice
Experimental objective: to test the pharmacokinetics of the compound in CD-1 mice
CD-1 mice (male, 20-40 g, 6-10 weeks old, Shanghai BK)
(§2) The standard protocol was used to test the pharmacokinetic characteristics of rodents after intravenous injection and oral administration of the compound. In the experiment, the candidate compound was prepared into a clear solution or a suspension, and administrated to two mice by single intravenous injection and oral administration. The vehicle for intravenous injection was a 5:95 DMSO and 10% hydroxypropyl β-cyclodextrin aqueous solution, and the vehicle for oral administration was a 0.5% w/v methylcellulose and 0.2% w/v tween 80 aqueous solution. Whole blood samples within 24 hours were collected, centrifuged at 3200 g for 10 minutes, and the supernatant was separated to obtain plasma samples. 4-fold volume of acetonitrile solution containing internal standard was added thereto to precipitate protein. The mixture was centrifuged, and the supernatant was taken, and an equal volume of water was added thereto. Then the mixture was centrifuged and the supernatant was taken for injection. The blood drug concentration was quantitatively analyzed by LC-MS/MS analysis method, and pharmacokinetic parameters, such as peak concentration, clearance rate, half-life, area under the drug-time curve and bioavailability, were calculated.

A short description of data set [5]: Pharmacokinetic evaluation in SD rats (intravenous and oral). Format: in vivo. The following applies: male, Sprague-Dawley, plasma, SD rat. As for the experimental part:
Test Embodiment 3: Pharmacokinetic Evaluation of Compound in Rats
Experimental objective: to test the pharmacokinetics of the compound in SD rats
Sprague Dawley rat (male, 200-300 g, 7-9 weeks old, Shanghai SLAC)
as §2, with “A standard” for “The standard”, “clear solution,” for “clear solution or a suspension,”, “to rats” for “to two mice”, “hydroxypropyl cyclodextrin” for “hydroxypropyl β-cyclodextrin”, “at 3000” for “at 3200”, “for 15” for “for 10”

Where [6] appears, read: SD rat, single oral administration 5 mg/kg, 5 mg/kg.
[7] abbreviates: male, Sprague-Dawley, rat, plasma, po, 5 mg/kg, single oral administration 5 mg/kg.
The mark [8] stands for this setting: male, Sprague-Dawley, rat, plasma, po, 30 mg/kg, single oral administration 30 mg/kg.

As usually defined, the EC50 is the concentration giving half of the maximal effect. A low value points to a more potent agent. One may read the Emax as the greatest response seen or fitted, relative to the assay's reference. In general, Tmax refers to the time at which the peak concentration occurs. What is called bioavailability is the share of a dose that reaches the circulation, judged against a reference dose that is usually intravenous.

T1 sequence (P21453 whole entry): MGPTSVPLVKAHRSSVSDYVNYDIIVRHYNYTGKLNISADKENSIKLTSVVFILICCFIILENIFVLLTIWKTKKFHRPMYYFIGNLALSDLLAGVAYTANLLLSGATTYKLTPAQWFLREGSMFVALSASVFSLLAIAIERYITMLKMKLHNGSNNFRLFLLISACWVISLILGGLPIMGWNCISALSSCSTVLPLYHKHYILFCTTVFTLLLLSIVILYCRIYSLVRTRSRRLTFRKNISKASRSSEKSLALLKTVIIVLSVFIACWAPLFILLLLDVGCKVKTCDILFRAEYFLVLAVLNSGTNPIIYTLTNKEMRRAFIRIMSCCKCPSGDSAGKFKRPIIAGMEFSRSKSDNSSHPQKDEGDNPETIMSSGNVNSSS

Turning to `CC(C)Oc1ccc(-c2nc(-c3cccc4c3CCC43CCN(CC4(C(=O)O)CC4)C3)no2)cc1C#N` (single isomer, unassigned) [Compound 22A], in data set [1] (setting [6]), the “Area under the drug-time curve AUC0-last PO” value worked out at 26.434 µM·h, the “Half-life T1/2 (PO)” value is recorded as 5.69 h, the “Peak time Tmax” value turned out to be 2 h and the Cmax was 2500 nM. In data set [2], this compound displayed an EC50 of 0.15 nM. Also, the Emax in data set [2] (read-out: Emax) is 84.2%.
As to `CC(C)Oc1ccc(-c2nc(-c3cccc4c3CCC43CCN(CC4(C(=O)O)CC4)C3)no2)cc1C#N` (single isomer, unassigned) [Compound 22B], in data set [1] (setting [7]), the AUC(0-t) was found to be 33 µM·h, the half-life was 6.7 h, the Cmax came to 2940 nM and the time to peak (Tmax) was found to be 3 h. Besides, in data set [2], the 50% effective concentration (EC50) is 0.32 nM and the Emax result is reported as “nM, 74.0%”.
In data set [3] (90-180 min at 37° C.), `CC(C)Oc1ccc(-c2nc(-c3cccc4c3CCC43CCN(CC4(C(=O)O)CC4)C3)no2)cc1C#N` (stereo not drawn) [Hydrochloride of compound 22] had an EC50 of 0.0754 nM. The Emax in data set [3] (% activity vs maximum control ligand) worked out at 118%. Besides, the Cmax in data set [4] (intravenous 0.5 mg/kg, oral 2.0 mg/kg (route of Cmax not stated), read-out: Peak concentration Cmax) is 869 ng/mL; in data set [1] (setting [7]) it was 2400 nM; in data set [1] (setting [8]) it was 15300 nM; in data set [5] (intravenous 0.8 mg/kg, oral 2.4 mg/kg (route of Cmax not stated), read-out: Peak concentration Cmax), 1770 ng/mL. Further, the bioavailability was determined as 62.5% in data set [4] (intravenous 0.5 mg/kg, oral 2.0 mg/kg, read-out: Bioavailability F) and 69.5% in data set [5] (intravenous 0.8 mg/kg, oral 2.4 mg/kg, read-out: Bioavailability F). Besides, the clearance in data set [4] (intravenous injection 0.5 mg/kg (oral 2.0 mg/kg), read-out: Clearance rate CL) stood at 5.2 mL/min/kg; in data set [5] (intravenous injection 0.8 mg/kg (oral 2.4 mg/kg), read-out: Clearance rate CL), 3.44 mL/min/kg. Moreover, the Vd came out at 1.82 L/kg in data set [4] (intravenous injection 0.5 mg/kg (oral 2.0 mg/kg), read-out: Tissue distribution Vdss) and 1.6 L/kg in data set [5] (intravenous injection 0.8 mg/kg (oral 2.4 mg/kg), read-out: Tissue distribution Vdss). Besides, the AUC(0-t) in data set [4] (oral administration 2.0 mg/kg, read-out: Area under the drug-time curve AUC0-last PO) turned out to be 7.88 µM·h; in data set [1] (setting [7]) it was 32.3 µM·h; in data set [1] (setting [8]), 256 µM·h; in data set [5] (oral administration 2.4 mg/kg, read-out: Area under the drug-time curve AUC0-last PO) it was 16.3 µM·h. For the same compound, the half-life in data set [4] (oral administration 2.0 mg/kg, read-out: Half-life T1/2 (PO) (converted)) was 3.66 h; in data set [1] (setting [8]), 8.24 h; in data set [5] (oral administration 2.4 mg/kg, read-out: Half-life T1/2 (PO) (converted)), 4.67 h. The values for the Tmax in data set [1] (setting [7]) and in data set [1] (setting [8]) were 5 h and 2 h, respectively.
